Assay results from ChEMBL document CHEMBL1201862, “PubChem BioAssay data set” (2004).
The source made the active and inactive calls.

What was measured:
[1] = target: T1, Alkaline phosphatase, tissue-nonspecific isozyme (Homo sapiens, UniProt P05186)
T1 sequence (P05186 whole entry): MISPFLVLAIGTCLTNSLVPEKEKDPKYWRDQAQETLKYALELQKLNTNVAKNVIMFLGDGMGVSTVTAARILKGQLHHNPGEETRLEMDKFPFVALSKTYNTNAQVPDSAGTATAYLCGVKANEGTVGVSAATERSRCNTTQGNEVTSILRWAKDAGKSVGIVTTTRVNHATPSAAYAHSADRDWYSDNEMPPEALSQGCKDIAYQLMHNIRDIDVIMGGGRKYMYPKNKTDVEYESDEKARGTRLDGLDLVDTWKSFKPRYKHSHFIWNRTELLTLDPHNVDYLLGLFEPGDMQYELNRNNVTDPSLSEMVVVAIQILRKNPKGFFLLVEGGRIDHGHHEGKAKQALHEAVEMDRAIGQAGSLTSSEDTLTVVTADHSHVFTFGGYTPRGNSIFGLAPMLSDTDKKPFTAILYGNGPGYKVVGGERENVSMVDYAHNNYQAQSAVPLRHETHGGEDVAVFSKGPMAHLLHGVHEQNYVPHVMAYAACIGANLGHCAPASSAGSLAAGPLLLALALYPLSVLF

[2] = target: Sphingosine 1-phosphate receptor 1 (Homo sapiens, UniProt P21453); assay type: functional;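 also: Tango beta-arrestin reporter U2OS cells stimulated with S1P near its EC80; inhibitor potency meaning antagonism of receptor activation by the natural agonist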
[3] = target: Melanocortin receptor 4 (Homo sapiens, UniProt P32245); experiment: inhibitors of MC4R cAMP signaling – cell-based, TR-FRET, biased antagonists, dose response (AID 602298); assay type: functional;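 also: antagonist potency against agonist-stimulated cAMP production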
[4] = cAMP pathway inhibition in counterscreen cell line – TR-FRET cAMP detection, counter-screen for MC4R biased antagonist project, dose response (AID 602305); assay type: functional, cell-based;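 also: U2OS cells stimulated with forskolin near its EC80 as the cAMP inducer; potency is for inhibition of forskolin-stimulated cAMP signaling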
[5] = microbe, parasite or virus in culture; assay type: functional; details: Mycobacterium tuberculosis
[6] = test system: BJ; experiment: BJ-TERT fibroblast viability loss – cell-based, RAS-independent, luminescence, dose response (AID 1933); assay type: functional; details: Homo sapiens
[7] = test system: BJ; experiment: cells; assay type: functional, cell-based; details: Homo sapiens
[8] = target: T2, Protein RecA (Mycobacterium tuberculosis, UniProt P9WHJ3); experiment: Fluorescence Cell-Free Homogeneous Dose Retest to Identify Inhibitors of RecA-Intein Splicing Activity. [Related pubchem assays (depositor defined):AID2097, AID2223, AID489010, AID492950]; assay type: functional
T2 sequence (P9WHJ3 whole entry): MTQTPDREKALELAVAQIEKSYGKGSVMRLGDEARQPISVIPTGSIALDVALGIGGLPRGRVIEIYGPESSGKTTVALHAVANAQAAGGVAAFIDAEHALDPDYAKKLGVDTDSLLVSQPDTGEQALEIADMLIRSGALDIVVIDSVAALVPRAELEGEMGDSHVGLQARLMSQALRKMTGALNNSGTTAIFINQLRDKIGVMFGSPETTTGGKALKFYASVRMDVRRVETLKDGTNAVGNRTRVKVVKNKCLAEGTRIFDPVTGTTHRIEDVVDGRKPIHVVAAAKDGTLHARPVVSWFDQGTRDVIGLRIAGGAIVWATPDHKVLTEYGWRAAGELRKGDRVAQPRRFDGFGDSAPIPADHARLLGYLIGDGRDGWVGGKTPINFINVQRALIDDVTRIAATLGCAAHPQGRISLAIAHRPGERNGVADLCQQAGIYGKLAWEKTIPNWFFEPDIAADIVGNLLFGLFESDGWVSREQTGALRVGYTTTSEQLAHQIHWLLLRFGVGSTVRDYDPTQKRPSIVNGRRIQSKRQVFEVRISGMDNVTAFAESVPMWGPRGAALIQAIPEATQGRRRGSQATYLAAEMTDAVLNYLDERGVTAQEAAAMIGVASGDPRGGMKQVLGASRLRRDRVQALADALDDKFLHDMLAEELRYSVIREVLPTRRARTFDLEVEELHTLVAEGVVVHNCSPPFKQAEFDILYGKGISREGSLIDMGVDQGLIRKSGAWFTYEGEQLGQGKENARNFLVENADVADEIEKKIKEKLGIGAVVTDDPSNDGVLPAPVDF

[9] = target: T3, Sphingosine 1-phosphate receptor 4 (Homo sapiens, UniProt O95977); experiment: Fluorescence dose response cell-based high throughput screening assay for antagonists of the Sphingosine 1-Phosphate Receptor 4 (S1P4). [Related pubchem assays: 1524 (Confirmation in triplicates.), 1510 (Primary screen.)]; assay type: functional
T3 sequence (O95977 whole entry): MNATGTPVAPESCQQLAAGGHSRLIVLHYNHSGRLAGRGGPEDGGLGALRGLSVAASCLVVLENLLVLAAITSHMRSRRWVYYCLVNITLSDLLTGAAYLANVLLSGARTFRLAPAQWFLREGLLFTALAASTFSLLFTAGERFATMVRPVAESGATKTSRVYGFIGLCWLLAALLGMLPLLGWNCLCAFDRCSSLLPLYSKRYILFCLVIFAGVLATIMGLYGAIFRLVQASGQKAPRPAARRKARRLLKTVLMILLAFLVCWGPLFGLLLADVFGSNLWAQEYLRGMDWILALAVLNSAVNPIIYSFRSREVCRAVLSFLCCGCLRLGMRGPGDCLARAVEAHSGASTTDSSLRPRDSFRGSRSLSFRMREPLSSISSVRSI

[10] = target: T4, Replicative DNA helicase DnaB (Mycobacterium tuberculosis, UniProt P9WMR3); experiment: DnaB intein splicing inhibitors, dose response, biochemical, cell-free fluorescence (AID 449749); assay type: functional
T4 sequence (P9WMR3 whole entry): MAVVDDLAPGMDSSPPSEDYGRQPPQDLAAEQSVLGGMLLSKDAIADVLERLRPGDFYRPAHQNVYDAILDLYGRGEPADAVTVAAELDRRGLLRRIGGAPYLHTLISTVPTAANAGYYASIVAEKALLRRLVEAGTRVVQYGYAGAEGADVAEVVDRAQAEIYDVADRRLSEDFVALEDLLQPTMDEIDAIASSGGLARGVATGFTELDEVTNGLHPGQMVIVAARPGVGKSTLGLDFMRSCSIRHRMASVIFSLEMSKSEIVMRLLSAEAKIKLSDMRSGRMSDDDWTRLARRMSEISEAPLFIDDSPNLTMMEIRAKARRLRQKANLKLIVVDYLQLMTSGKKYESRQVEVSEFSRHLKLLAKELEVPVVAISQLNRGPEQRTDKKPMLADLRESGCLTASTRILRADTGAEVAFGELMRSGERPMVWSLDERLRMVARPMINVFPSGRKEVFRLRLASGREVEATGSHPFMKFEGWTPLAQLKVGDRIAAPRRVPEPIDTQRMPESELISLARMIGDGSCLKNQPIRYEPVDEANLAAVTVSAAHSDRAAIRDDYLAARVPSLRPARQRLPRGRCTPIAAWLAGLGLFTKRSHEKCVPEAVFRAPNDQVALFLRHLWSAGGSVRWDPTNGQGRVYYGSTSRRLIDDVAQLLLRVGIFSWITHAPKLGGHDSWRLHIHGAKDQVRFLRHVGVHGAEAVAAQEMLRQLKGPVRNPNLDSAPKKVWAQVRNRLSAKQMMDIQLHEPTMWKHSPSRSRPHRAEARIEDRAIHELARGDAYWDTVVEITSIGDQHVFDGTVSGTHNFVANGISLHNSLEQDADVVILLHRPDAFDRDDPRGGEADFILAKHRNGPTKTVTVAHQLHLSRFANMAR

[11] = test system: BJ; experiment: BJ-TERT-LT-ST fibroblast viability loss – cell-based, RAS-independent, luminescence, dose response (AID 1935); assay type: functional; details: Homo sapiens;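 also: BJ fibroblasts immortalized with TERT plus LT and ST oncogenes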
[12] = DRD fibroblast viability loss – cell-based, non-viral oncogenic, luminescence, dose response (AID 1934); assay type: functional; details: Homo sapiens
[13] = target: T5, Neuropeptide Y receptor type 2 (Homo sapiens, UniProt P49146); assay type: functional, cell-based;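 also: HEK293 cells expressing the receptor and a CNG channel; stimulus was NPY near EC95 followed by isoproterenol to raise cAMP; antagonist potency measured as restoring cAMP signal that NPY suppresses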
T5 sequence (P49146 whole entry): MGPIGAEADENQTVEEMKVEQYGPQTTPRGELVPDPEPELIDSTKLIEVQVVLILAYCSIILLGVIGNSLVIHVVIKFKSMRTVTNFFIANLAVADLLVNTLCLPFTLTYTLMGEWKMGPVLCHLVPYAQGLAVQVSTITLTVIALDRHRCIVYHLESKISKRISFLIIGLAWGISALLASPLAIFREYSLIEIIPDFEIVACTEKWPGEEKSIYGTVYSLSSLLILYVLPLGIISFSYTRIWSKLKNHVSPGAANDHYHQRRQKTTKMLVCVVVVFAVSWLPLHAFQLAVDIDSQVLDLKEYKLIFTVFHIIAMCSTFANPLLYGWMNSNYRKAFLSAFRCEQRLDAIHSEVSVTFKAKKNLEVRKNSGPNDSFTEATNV

[14] = target: T6, Neuropeptide Y receptor type 1 (Homo sapiens, UniProt P25929); assay type: functional;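 also: HEK293 cells with a CNG channel challenged with NPY then isoproterenol; potency as antagonist that reverses NPY suppression of cAMP signal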
T6 sequence (P25929 whole entry): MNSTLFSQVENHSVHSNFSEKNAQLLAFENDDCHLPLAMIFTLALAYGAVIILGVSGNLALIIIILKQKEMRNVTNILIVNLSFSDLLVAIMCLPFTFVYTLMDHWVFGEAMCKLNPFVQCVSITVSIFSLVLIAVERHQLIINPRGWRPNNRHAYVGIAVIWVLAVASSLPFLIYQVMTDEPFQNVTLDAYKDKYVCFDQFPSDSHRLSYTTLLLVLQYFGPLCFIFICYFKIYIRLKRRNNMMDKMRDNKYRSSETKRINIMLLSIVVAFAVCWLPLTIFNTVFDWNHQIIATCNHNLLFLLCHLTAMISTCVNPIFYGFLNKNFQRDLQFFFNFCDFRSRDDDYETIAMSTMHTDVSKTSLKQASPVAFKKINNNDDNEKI

[15] = target: Transitional endoplasmic reticulum ATPase (Homo sapiens, UniProt P55072); experiment: p97 ATPase inhibitors, dose response, biochemical (AID 1534)
[16] = target: NS3 (Hepatitis C virus, UniProt A3EZJ3); experiment: PubChem AID 2173; parameters: species or system Hepacivirus hominis
[17] = target: Transitional endoplasmic reticulum ATPase (Homo sapiens, UniProt P55072, C522A); experiment: C522A mutant p97 ATPase inhibitors, dose response, counter-screen for p97 inhibitor project, biochemical, luminescence (AID 1544)
[18] = target: Peroxisome proliferator-activated receptor gamma/Nuclear receptor corepressor 2 (Homo sapiens, UniProt P37231+Q9Y618); assay type: functional
[19] = target: Photoreceptor-specific nuclear receptor (Homo sapiens, UniProt Q9Y5X4); assay type: functional;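 also: potency for compounds that break the NR2E3 corepressor complex and count as activators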
Photoreceptor-specific nuclear receptor, sequence (Q9Y5X4 whole entry): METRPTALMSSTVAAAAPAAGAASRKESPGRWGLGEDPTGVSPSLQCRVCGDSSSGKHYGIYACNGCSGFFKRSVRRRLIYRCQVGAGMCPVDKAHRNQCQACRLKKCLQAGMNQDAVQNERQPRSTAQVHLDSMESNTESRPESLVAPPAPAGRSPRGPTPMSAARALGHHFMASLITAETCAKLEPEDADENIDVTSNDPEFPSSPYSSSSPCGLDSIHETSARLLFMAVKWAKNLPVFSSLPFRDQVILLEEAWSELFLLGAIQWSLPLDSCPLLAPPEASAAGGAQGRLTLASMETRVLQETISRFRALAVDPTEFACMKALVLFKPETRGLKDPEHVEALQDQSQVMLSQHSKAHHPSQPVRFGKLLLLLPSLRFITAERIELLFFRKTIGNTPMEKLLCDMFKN

Transitional endoplasmic reticulum ATPase (Homo sapiens, UniProt P55072), sequence (P55072 whole entry): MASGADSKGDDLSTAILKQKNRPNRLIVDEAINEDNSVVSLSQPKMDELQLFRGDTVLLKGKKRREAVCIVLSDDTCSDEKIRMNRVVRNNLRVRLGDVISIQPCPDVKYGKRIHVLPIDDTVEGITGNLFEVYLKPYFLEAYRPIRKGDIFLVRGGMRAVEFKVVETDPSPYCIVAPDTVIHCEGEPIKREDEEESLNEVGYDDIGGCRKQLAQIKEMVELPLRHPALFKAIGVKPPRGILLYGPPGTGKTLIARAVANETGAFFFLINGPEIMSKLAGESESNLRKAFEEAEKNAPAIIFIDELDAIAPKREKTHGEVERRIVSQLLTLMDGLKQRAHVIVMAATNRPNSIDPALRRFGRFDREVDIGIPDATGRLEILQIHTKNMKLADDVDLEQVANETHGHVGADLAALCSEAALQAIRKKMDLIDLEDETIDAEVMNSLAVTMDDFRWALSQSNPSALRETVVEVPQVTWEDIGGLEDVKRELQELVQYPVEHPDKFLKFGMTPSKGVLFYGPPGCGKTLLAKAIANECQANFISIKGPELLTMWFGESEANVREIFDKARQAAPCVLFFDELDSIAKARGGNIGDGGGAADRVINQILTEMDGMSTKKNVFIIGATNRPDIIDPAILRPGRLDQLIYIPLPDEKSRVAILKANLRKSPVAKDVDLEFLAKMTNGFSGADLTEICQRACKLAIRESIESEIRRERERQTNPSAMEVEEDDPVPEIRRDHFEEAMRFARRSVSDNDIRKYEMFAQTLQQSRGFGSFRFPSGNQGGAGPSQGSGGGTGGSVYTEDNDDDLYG
Transitional endoplasmic reticulum ATPase (Homo sapiens, UniProt P55072, C522A), sequence (P55072 2-806 C522A limits assumed): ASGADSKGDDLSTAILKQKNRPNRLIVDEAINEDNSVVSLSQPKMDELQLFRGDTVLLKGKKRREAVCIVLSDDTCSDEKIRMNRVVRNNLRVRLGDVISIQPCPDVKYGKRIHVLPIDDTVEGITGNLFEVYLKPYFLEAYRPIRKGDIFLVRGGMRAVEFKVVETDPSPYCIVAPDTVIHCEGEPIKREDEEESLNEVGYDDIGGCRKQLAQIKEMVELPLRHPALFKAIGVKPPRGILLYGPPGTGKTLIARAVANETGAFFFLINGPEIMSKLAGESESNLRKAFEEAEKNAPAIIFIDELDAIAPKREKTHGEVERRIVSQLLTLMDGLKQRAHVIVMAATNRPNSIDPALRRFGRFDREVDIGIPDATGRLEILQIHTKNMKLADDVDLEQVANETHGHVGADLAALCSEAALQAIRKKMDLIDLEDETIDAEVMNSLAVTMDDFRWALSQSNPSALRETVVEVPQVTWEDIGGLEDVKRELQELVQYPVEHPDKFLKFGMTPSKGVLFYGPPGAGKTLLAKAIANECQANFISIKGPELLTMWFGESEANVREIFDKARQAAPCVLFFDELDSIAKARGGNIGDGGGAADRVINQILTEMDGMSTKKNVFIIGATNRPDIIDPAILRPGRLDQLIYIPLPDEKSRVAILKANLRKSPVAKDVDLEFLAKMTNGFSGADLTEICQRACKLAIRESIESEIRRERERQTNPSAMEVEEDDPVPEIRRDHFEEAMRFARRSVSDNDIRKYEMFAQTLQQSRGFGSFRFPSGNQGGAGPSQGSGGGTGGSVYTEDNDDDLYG
Sphingosine 1-phosphate receptor 1, sequence (P21453 whole entry): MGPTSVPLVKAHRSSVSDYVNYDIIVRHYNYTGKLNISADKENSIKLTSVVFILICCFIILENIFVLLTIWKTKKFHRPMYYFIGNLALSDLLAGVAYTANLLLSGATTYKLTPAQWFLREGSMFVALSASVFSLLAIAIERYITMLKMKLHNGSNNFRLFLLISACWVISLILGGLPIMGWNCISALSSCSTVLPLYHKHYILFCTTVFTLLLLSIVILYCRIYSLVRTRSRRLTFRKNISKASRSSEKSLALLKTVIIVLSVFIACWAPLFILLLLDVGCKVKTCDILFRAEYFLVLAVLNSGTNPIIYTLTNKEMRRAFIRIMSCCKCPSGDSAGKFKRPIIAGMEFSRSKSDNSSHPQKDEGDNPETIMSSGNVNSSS
Melanocortin receptor 4, sequence (P32245 whole entry): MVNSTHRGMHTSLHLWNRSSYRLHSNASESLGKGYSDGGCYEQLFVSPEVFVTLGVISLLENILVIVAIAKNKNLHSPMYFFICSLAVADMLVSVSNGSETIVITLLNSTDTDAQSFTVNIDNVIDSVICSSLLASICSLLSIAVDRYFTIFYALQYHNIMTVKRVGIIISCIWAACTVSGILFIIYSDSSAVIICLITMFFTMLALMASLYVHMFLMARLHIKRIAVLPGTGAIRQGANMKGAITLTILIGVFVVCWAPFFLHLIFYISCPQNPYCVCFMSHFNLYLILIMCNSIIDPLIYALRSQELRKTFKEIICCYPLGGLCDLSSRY
NS3, sequence (A3EZJ3 whole entry): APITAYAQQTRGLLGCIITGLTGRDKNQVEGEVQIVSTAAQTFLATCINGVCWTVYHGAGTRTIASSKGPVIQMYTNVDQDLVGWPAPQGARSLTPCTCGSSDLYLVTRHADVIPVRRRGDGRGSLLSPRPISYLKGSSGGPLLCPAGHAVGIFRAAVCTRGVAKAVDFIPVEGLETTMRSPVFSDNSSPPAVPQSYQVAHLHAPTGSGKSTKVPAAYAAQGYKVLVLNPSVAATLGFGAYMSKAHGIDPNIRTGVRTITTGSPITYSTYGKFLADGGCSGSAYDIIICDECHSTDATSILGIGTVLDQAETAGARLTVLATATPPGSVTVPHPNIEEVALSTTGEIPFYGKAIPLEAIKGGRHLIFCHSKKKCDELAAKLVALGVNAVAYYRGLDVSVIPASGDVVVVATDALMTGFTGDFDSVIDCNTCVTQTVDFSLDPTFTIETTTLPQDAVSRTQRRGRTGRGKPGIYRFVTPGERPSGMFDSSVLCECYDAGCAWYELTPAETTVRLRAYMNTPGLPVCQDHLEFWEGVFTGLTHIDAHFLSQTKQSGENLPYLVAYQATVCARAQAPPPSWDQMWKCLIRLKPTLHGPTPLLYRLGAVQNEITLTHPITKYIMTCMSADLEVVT

SMILES: CC(C)CN=C(S)NNC(=O)c1ccco1
- EC50 [1]: 73.9 µM (not active)

SMILES: CC(=O)n1cc(N(C(=O)CCl)c2ccc(Cl)cc2)c2ccccc21
- IC50 [2]: 7.32 µM (active)
- IC50 [3]: > 64.5 µM (inactive)
- IC50 [4]: > 64.5 µM (inactive)
- CC50 [5]: 1.08 µM (active)
- EC50 [6]: 0.198 µM (active)
- EC50 [7]: 2.5 µM (inconclusive)
- EC50 [8]: 0.346 µM (active)
- IC50 [9]: 0.682 µM (active)
- AC50 [10]: 1.27 µM (active)
- EC50 [11]: 2.67 µM (active)
- EC50 [12]: 1.37 µM (inconclusive)

SMILES: Cc1ccc(C)c(NS(=O)(=O)c2cc(C(=O)Nc3ccccc3-c3ccccc3)ccc2Cl)c1
- IC50 [13]: 0.428 µM (active)
- IC50 [14]: > 35 µM (not active)

SMILES: O=C(CCl)Nc1nc(-c2ccco2)c(-c2ccco2)s1
- IC50 [15]: > 50 µM (not active)
- IC50 [16]: 47.8 µM (not active)
- IC50 [17]: > 50 µM (not active)

SMILES: Cc1cccc(NC(=O)CSc2ncnc3c2oc2ccccc23)c1
- IC50 [18]: 3.35 µM (active)
- IC50 [19]: > 39.8 µM (not active)
